Measurements taken from ChEMBL document CHEMBL5154927, “Discovery of Novel Bicyclic Phenylselenyl-Containing Hybrids: An Orally Bioavailable, Potential, and Multiacting Class of Estrogen Receptor Modulators against Endocrine-Resistant Breast Cancer” (J Med Chem, 2022).
The source made the active and inactive calls. The rule behind the calls is not given here.

Experiments:
[1] = test system: MCF7; assay: Induction of apoptosis in human MCF7 cells assessed as decrease in Bcl2 level at 0.5 to 4 uM incubated for 48 hrs by western blot analysis; format: functional, cell-based; conditions: dose 0.5-4 µM
[2] = test system: LCC2; assay: Induction of apoptosis in tamoxifen-resistant human LCC2 cells assessed as increase in late apoptotic cells at 5 to 30 uM incubated for 48 hrs by annexin V-FITC staining based flow cytometry; format: functional, cell-based; conditions: dose 5-30 µM
[3] = Antitumor activity against tamoxifen-resistant human LCC2 cells xenografted in BALB/C mouse assessed as tumor growth inhibition at 20 mg/kg, po measured every 2 days for 22 days; format: functional; conditions: LCC2, 528 h, time 22 day, read-out: TGI
[4] = Tmax in BALB/C mouse at 5 mg/kg, iv by LC-MS/MS analysis; format: ADME, organism-based; conditions: in vivo
[5] = test system: LCC2; assay: Induction of apoptosis in tamoxifen-resistant human LCC2 cells assessed as decrease in Bcl2 level at 5 to 30 uM incubated for 48 hrs by western blot analysis; format: functional, cell-based; conditions: dose 5-30 µM
[6] = test system: MCF7; assay: Induction of ROS production in human MCF7 cells at 1 to 4 uM measured after 48 hrs by DCFH-DA staining based confocal laser scanning microscopic method; format: functional, cell-based; conditions: dose 1-4 µM
[7] = Toxicity in BALB/C mouse xenografted with tamoxifen-resistant human LCC2 cells assessed as effect on body weight at 20 mg/kg, po measured after 22 days; format: organism-based; conditions: in vivo, 528 h, time 22 day
[8] = Cmax in BALB/C mouse at 5 mg/kg, iv by LC-MS/MS analysis; format: ADME, organism-based; parameters: dose 5 mg/kg, route iv; conditions: in vivo
[9] = Oral bioavailability in BALB/C mouse at 20 mg/kg by LC-MS/MS analysis; format: ADME, organism-based; conditions: in vivo
[10] = Toxicity in BALB/C mouse xenografted with human MCF7 cells assessed as morphological changes in kidney at 10 to 20 mg/kg, po by hematoxylin and eosin staining based analysis; format: organism-based; conditions: in vivo, dose 10-20 mg/kg
[11] = test system: MCF7; assay: Antitumor activity against human MCF7 cells xenografted in BALB/C mouse assessed as suppression of tumor growth at 10 to 20 mg/kg, po measured every 2 days for 34 days; format: functional, organism-based; conditions: dose 10-20 mg/kg, time 34.0 day
[12] = test system: LCC2; assay: Downregulation of hexokinase-1 expression in tamoxifen-resistant human LCC2 cell outer mitochondrial membrane measured after 24 hrs by Western blot analysis; format: functional; conditions: Mitochondria
[13] = test system: LCC2; assay: Induction of apoptosis in tamoxifen-resistant human LCC2 cells at 5 to 30 uM incubated for 48 hrs by annexin V-FITC staining based flow cytometry; format: functional, cell-based; conditions: dose 5-30 µM
[14] = test system: LCC2; assay: Induction of apoptosis in tamoxifen-resistant human LCC2 cells assessed as increase in Bax level at 5 to 30 uM incubated for 48 hrs by western blot analysis; format: functional, cell-based; conditions: dose 5-30 µM
[15] = test system: MCF7; assay: Induction of apoptosis in human MCF7 cells assessed as increase in Bax level at 0.5 to 4 uM incubated for 48 hrs by western blot analysis; format: functional, cell-based; conditions: dose 0.5-4 µM
[16] = Half life in BALB/C mouse at 5 mg/kg, iv by LC-MS/MS analysis; format: ADME, organism-based; conditions: in vivo
[17] = test system: MCF7; assay: Induction of mitochondrial membrane potential loss in human MCF7 cells incubated for 48 hrs by JC-1 staining based flow cytometry; format: functional, cell-based; conditions: dose 1-4 µM, DDE = dose-dependent effect
[18] = Toxicity in BALB/C mouse xenografted with human MCF7 cells assessed as change in body weight at 10 to 20 mg/kg, po measured every 2 days for 34 days; format: organism-based; conditions: in vivo, 816 h, dose 10-20 mg/kg, time 34 day
[19] = test system: MCF7; assay: Downregulation of hexokinase-1 expression in human MCF7 cell mitochondria at 16 uM measured after 24 hrs by DAPI staining based immunofluorescence microscopy; format: functional
[20] = test system: MCF7; assay: Induction of apoptosis in human MCF7 cells assessed as increase in late apoptotic cells at 0.5 to 4 uM incubated for 48 hrs by annexin V-FITC staining based flow cytometry; format: functional, cell-based; conditions: dose 0.5-4 µM
[21] = test system: MCF7; assay: Antitumor activity against human MCF7 cells xenografted in BALB/C mouse assessed as increase in tumor necrosis area at 20 mg/kg, po […]; format: functional, organism-based
[22] = Clearance in BALB/C mouse at 5 mg/kg, iv by LC-MS/MS analysis; format: ADME, organism-based; conditions: in vivo
[23] = test system: MCF7; assay: Induction of apoptosis in human MCF7 cells assessed as total apoptotic cells at 0.5 uM incubated for 48 hrs by annexin V-FITC staining based flow cytometry; format: functional
[24] = test system: MCF7; assay: Antitumor activity against human MCF7 cells xenografted in BALB/C mouse assessed as reduction of tumor volume at 20 mg/kg, po measured every 2 days for 34 days; format: functional, organism-based; conditions: time 34.0 day
[25] = test system: MCF7; assay: Antitumor activity against human MCF7 cells xenografted in BALB/C mouse assessed as decrease in cell proliferation at 20 mg/kg, po by Ki67 staining based immunohistochemical analysis; format: functional, organism-based
[26] = Toxicity in BALB/C mouse xenografted with human MCF7 cells assessed as mortality at 10 to 20 mg/kg, po measured after 34 days; format: organism-based; conditions: in vivo, 816 h, dose 10-20 mg/kg, time 34 day
[27] = AUC in BALB/C mouse at 5 mg/kg, iv by LC-MS/MS analysis; format: ADME, organism-based; parameters: dose 5 mg/kg, route iv; conditions: in vivo

With `O=S(=O)(Oc1cccc2ccccc12)C1CC2OC1C(c1ccc([Se]c3ccccc3)cc1)=C2c1ccc(O)cc1` (configuration not stated) the Activity [1] was “Active”, the Activity [2] was “Active” and the inhibition in vivo at 20 mg/kg [3] was 57.3%. For the same molecule, the Tmax [4] was 4.98 min, the Activity [5] was “Active” and the Activity [6] was “Active”. The Activity [7] was “Non-Toxic”, the Cmax [8] was 1490 ng/mL and the bioavailability [9] was 23.2%. For the same molecule, the Activity [10] was “Non-Toxic”, the Activity [11] was “Active” and the Activity [12] was “Active”. The Activity [13] was “Active”, the Activity [14] was “Active” and the Activity [15] was “Active”. The half-life [16] was 4.65 h, the Activity [17] was “Dde” and the Activity [18] was “Non-Toxic”. The Activity [19] was “Active”, the Activity [20] was “Active” and the Activity [21] was “Active”. The clearance [22] was 52.7 mL/min/kg, the Activity [23] was 9.16% and the Activity [24] was “Active”. The Activity [25] was “Active”, the Activity [26] was “Non-Toxic” and the AUC [27] was 1550 ng·h/mL.
